Source: ChEMBL document CHEMBL5120812, “Cytotoxic Nitrobenzoyl Sesquiterpenoids from an Antarctica Sponge-Derived Aspergillus insulicola” (J Nat Prod, 2022)
Counter-ions that a name gives are not always drawn.

Assays:
Format in all cases: functional, cell-based
PANC-1 = experiment: Cytotoxicity against human PANC-1 cells assessed as inhibition of cell growth incubated for 72 hrs by SRB assay; conditions: PANC-1, 72 h
ASPC1 = experiment: Cytotoxicity against human ASPC1 cells assessed as inhibition of cell growth incubated for 72 hrs by SRB assay; conditions: ASPC1, 72 h
BXPC-3 = experiment: Cytotoxicity against human BXPC-3 cells assessed as inhibition of cell growth incubated for 72 hrs by SRB assay; conditions: BXPC-3, 72 h
MDA-MB-231 = experiment: Cytotoxicity against human MDA-MB-231 cells assessed as inhibition of cell growth incubated for 72 hrs by SRB assay; conditions: MDA-MB-231, 72 h

| SMILES | IC50 (PANC-1) [nM] | IC50 (ASPC1) [nM] | IC50 (BXPC-3) [nM] | IC50 (MDA-MB-231) [nM] |
| --- | --- | --- | --- | --- |
| Nc1ccn([C@@H]2O[C@H](CO)[C@@H](O)C2(F)F)c(=O)n1 [GEMCITABINE] | 8300 | 7500 | 40 | – |
| COc1cccc2c1C(=O)c1c(O)c3c(c(O)c1C2=O)C[C@@](O)(C(=O)CO)C[C@@H]3O[C@H]1C[C@H](N)[C@H](O)[C@H](C)O1 [DOXORUBICIN HYDROCHLORIDE] | 900 | 300 | – | 200 |
